From ChEMBL document CHEMBL3217417, “PRIMACINS, N-cinnamoyl-primaquine conjugates, with improved liver-stage antimalarial activity” (Medchemcomm, 2012)

Tests used:
Plasmodium falciparum = experiment: Antiplasmodial activity against erythrocyte stage of Plasmodium falciparum W2 assessed as growth inhibition after 48 hrs by flow cytometry; type: functional, organism-based; conditions: W2, 48 h
Plasmodium berghei [1] = experiment: Ratio of primaquine IC50 to compound IC50 against liver stage of Plasmodium berghei sporozoites expressing firefly luciferase infected in human Huh7 cells; type: functional, Huh-7
[2] = Cytotoxicity against human HuH7 cells assessed as cell viability by alamarblue assay; type: cell-based; conditions: huh-7
Plasmodium berghei [3] = experiment: Antiplasmodial activity against liver stage of Plasmodium berghei sporozoites expressing firefly luciferase infected in human Huh7 cells assessed as inhibition of parasite development treated 1 hr prior to infection followed by compound replenisment at 24 hrs post-infection measured 48 hrs after infection by bioluminescence analysis; type: functional, organism-based; conditions: Huh-7, Liver

Structure (SMILES)	IC50 (Plasmodium berghei [3])	IC50 (Plasmodium falciparum)	Ratio IC50 (Plasmodium berghei [1])	Activity [2]
COc1ccc(/C=C/C(=O)NCCCC(C)Nc2cc(OC)cc3cccnc23)cc1 (centres undefined)	–	≥ 10 µM	>2	Non-toxic
COc1cc(NC(C)CCCNC(=O)/C=C/c2ccc(C(C)C)cc2)c2ncccc2c1 (centres undefined)	1.54 µM	4.84 µM	>2	Non-toxic
COc1cc(NC(C)CCCNC(=O)/C=C/c2cccc(F)c2)c2ncccc2c1 (centres undefined)	1.63 µM	≥ 10 µM	>2	Non-toxic
COc1cc(NC(C)CCCNC(=O)/C=C/c2ccc(Br)cc2)c2ncccc2c1 (centres undefined)	1.38 µM	≥ 10 µM	>2	Non-toxic
COc1cc(NC(C)CCCNC(=O)/C=C/c2ccccc2)c2ncccc2c1 (centres undefined)	2.01 µM	≥ 10 µM	>2	Non-toxic
C[C@@H]1CC[C@H]2[C@@H](C)C(=O)O[C@@H]3O[C@@]4(C)CC[C@@H]1[C@]32OO4 [ARTEMISININ]	–	0.00564 µM	–	–

The next lines start with results.

IC50 (Plasmodium berghei [3])	Structure (SMILES)	IC50 (Plasmodium falciparum)	Ratio IC50 (Plasmodium berghei [1])	Activity [2]
2.36 µM	COc1cc(NC(C)CCCNC(=O)/C=C/c2ccccc2[N+](=O)[O-])c2ncccc2c1 (centres undefined)	≥ 10 µM	>2	Non-toxic
2.39 µM	COc1cc(NC(C)CCCNC(=O)/C=C/c2ccc(Cl)cc2)c2ncccc2c1 (centres undefined)	≥ 10 µM	>2	Non-toxic
2.12 µM	COc1cc(NC(C)CCCNC(=O)/C=C/c2cccc([N+](=O)[O-])c2)c2ncccc2c1 (centres undefined)	≥ 10 µM	>2	Non-toxic
2.13 µM	COc1cc(NC(C)CCCNC(=O)/C=C/c2ccc(C)cc2)c2ncccc2c1 (centres undefined)	≥ 10 µM	>2	Non-toxic
2.33 µM	COc1cc(NC(C)CCCNC(=O)/C=C/c2ccc(F)cc2)c2ncccc2c1 (centres undefined)	≥ 10 µM	>2	Non-toxic
2.24 µM	COc1cc(NC(C)CCCNC(=O)/C=C/c2ccc([N+](=O)[O-])cc2)c2ncccc2c1 (centres undefined)	≥ 10 µM	>2	Non-toxic
